From patent US8552033B2, “Inhibitors of CXCR2” (SANOFI, priority 2006, dated 2013)
pIC50: −log10 of the molar value.

Target: human CXCR2 (Homo sapiens (Human), UniProt P25025)
Assay: CXCR2 inhibition: calcium fluorescence assay (FLIPR)
Format: cell-based
Conditions: chemokine IL-8; CHO-K1 cells stably transfected with human CXCR2 and Gα16; Fluo-4 calcium response
Text: Determination of CXCR2 Inhibition: Calcium Fluorescence Assay (FLIPR)
The assay is based on the detection of intracellular calcium changes detected by the selective, calcium-chelating dye, Fluo-4 (Molecular Probes). A large fluorescence intensity increase is observed upon calcium association with Fluo-4. The dye is delivered to the cell interior using an acetoxymethylester form of Fluo-4, where the intracellular esterase activity results in the charged species being released and trapped within the cytoplasm of the cell. […] By co-expressing the CXCR2 receptor and the promiscuous Gα16 protein, activation of this chemokine receptor is directed into this phospholipase C cascade resulting in intracellular calcium mobilization.
The CHO-K1 cells stably transfected with human CXCR2 and the promiscuous Gα16 protein were maintained in a log phase of growth at 37° C. and 5% CO2 in the following media: Iscove's, 10% FBS, 1× Penicillin-Streptomycin, 400 μg/mL G418 and 350 μg/mL Zeocin. Approximately 24-48 hours prior to the assay, 20,000-30,000 cells/well were plated onto a 96-well black/clear bottomed assay plate (Becton Dickinson) with a well volume of 180 μl. […] The IC50 value of a compound was determined by calculation of % inhibition of total calcium response to the chemokine.

human CXCR2, sequence (P25025 whole entry): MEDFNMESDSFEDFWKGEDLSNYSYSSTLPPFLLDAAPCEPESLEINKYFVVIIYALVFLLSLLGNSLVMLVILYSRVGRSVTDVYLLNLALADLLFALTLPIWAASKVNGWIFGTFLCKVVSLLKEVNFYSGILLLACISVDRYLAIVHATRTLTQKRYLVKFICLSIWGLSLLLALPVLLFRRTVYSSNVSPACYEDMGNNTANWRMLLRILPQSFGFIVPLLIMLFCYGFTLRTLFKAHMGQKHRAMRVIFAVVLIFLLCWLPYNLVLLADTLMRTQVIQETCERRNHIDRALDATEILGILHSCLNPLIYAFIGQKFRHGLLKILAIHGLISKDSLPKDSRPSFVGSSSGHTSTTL

pIC50 | SMILES
5.66 | CCC(NC(=O)c1ccc2ccccc2c1OCc1ccc(C(F)(F)F)cc1)(C(=O)O)c1ccccc1 (centres unmarked) [Example 10, 2-Phenyl-2-{[1-(4-trifluoromethyl-benzyloxy)-naphthalene-2-carbonyl]-amino}-butyric acid]
5.22 | O=C(NC1(C(=O)O)CCOCC1)c1cc(F)c2ccccc2c1OCc1ccc(SC(F)(F)F)cc1 [Example 12, 4-{[4-Fluoro-1-(4-trifluoromethylsulfanyl-benzyloxy)-naphthalene-2-carbonyl]-amino}-tetrahydro-pyran-4-carboxylic acid]
